These results are taken from patent US20150335548A1, “Oral Care Composition” (COLGATE-PALMOLIVE COMPANY, priority 2012, published 2015).

What all share (format): cell-based
Experiment [1] has as its system 3-day old biofilm of the artificial mouth consortium of bacteria (A. naeslundii, S. oralis, V. parvula, L. casei, F. nucleatum) and S. mutans. The experiment can be described thus: In vitro biofilm removal, 3-day old biofilm (protocol of Example 2). The settings on record: for Percent Removal of a 3-day Oral Biofilm: […] ionic liquid in base prototype mouth rinse of Table 1, 15 minutes, relative to water control; for Percent Biofilm Removal: BMIM-based ionic liquids. The method, then:
The 3-day old biofilm was grown on a 24 well plate using the artificial mouth consortium of bacteria (A. naeslundii, S. oralis, V. parvula, L. casei, F. nucleatum) and S. mutans. To generate the biofilm, plates were inoculated with saliva overnight to form a pellicle. The consortium of bacteria (1 mL) at an OD of ˜0.2 was added to each well. The bacterial media (Tryptic Soy Broth with 6% sucrose) was changed after 48 hours. The 3-day old biofilm was treated with the prototype formulation (500 μL) for 15 minutes on a plate shaker at 300 rpm. After incubation, the supernatant was discarded. The optical density of each well was measured and the percentage reduction in optical density relative to the control (water) was calculated to determine the effect of the prototype formulation on biofilm removal. […]
Water, untreated biofilm, commercially available mouthwash formulations with CPC (Cetyl pyridinium chloride) and a mouthwash containing five enzymes for combatting biofilm acted as […] for the experiment.

For a further experiment, the system named is A. viscosus. The experiment can be described thus: Growth inhibition of A. viscosus (optical density over time). The settings on record: for optical density of A. viscosus culture, 0 h / optical density of A. viscosus culture, 4 h / optical density of A. viscosus culture, 22 h / optical density of A. viscosus culture, 24 h: 10% concentration in a mouth rinse. The method, then:
The effects of 1-decyl-3-methylimidazolium (DMIM) chloride on bacterial growth were investigated in vitro. DMIM chloride was incorporated into a prototype mouth rinse as illustrated in Table 17. […] The growth inhibition was measured as a change in optical density over time.
The antibacterial effects of various ionic liquids were determined according to the protocol described in Example 12.

The test system of experiment [2] is 3-day old multispecies oral biofilm (artificial mouth consortium combined with Streptococcus mutans). The experiment is described as follows: In vitro removal of biofilm by prototype mouthrinse formulations (Example 8). Conditions: for % removal in High humectant mouthwash / % removal in Low humectant mouthwash: 3-day old biofilm; for Percent Biofilm Removal: 10% glycerin and 5% propylene glycol. The method, then: General Procedures Used to Prepare Biofilm
The analyst used a commercially available fluoride dentifrice (Colgate Pro Clinical) and a soft bristled toothbrush (Colgate 360) for routine oral hygiene for 3 days prior to the start of saliva collection. Saliva was collected in the morning, at least two hours after a meal and was centrifuged at 10,000 rpm for 20 minutes. The supernatant was decanted into a Petri dish and placed under UV for 45 minutes.
Bacteria Preparation: Bacteria were taken from the artificial mouth consortium (containing Actinomyces naeslundii, Streptococcus oralis, Veillonella parvula, Lactobacillus casei, and Fusibacterium nucleatum) and combined with Streptococcus mutans which had been grown separately in a ratio of 2:1. Bacteria were grown in tryptic soy broth (TSB) media with 6% sucrose. The resulting bacterial culture was diluted to the required volume, prior to diluting to an optical density of 0.2.
Plate Preparation: 500 μL of UV-treated saliva were added to each well of a 24-well plate. Plates were inoculated overnight in 37° C. After inoculation, excess saliva was discarded and 1 ml of bacteria was added to each well. The bacteria were allowed to attach and develop a biofilm on the bottom of each well over 2 to 4 days, changing the media every 48 hours. During media change, the old media was discarded and 1 ml of fresh media was added.
Treatment: 500 μL of ionic liquid formulation was added to each well and incubated for 4-30 minutes on a plate shaker at 300 rpm. After incubation, the supernatant was discarded. No rinsing was carried out. The optical density of each well was measured at 610 nm, and the percentage reduction in biofilm reduction relative to the control (water) was calculated.
Second Treatment: 500 μL of ionic liquid formulation was added to each well and incubated for 4-30 minutes on a plate shaker at 300 rpm. After discarding the supernatant, the optical density was measured and the percentage reduction in biofilm formation relative to the control (water) was calculated.
An 8 factor design was used. Colgate Plax Re-launch mouth rinse was used a base formulation to build upon. […] Table 11 illustrates the general formulation on the basis of which the prototype formulations were designed.
74 prototype formulations were developed. There are shown below in Table 12 (see next page). Table 12 further illustrates the percentage biofilm reduction after one 15-minute treatment of a 3-day-old biofilm with the formulation, and the viscosity for each formulation. In Table 12, PG is propylene glycol; CPC is cetyl pyridinium chloride; and TRIS is tris(2-hydroxyethyl)methylammonium methylsulfate. All amounts are given in wt %.

[3] abbreviates: EMIM-based ionic liquids, […] in base prototype mouth rinse of Table 1, 3-day old biofilm.
Where [4] appears, read: direct comparison EMIM vs BMIM with different anions, 3-day old biofilm.
Setting [5] is: […] in base prototype mouth rinse of Table 1, 3-day old biofilm.
Setting [6] is: other ionic liquids, 3-day old biofilm.
[7] abbreviates: one ionic liquid at 10, the other at 0.
Where [8] appears, read: one ionic liquid at 20, the other at 0.

Regarding `CCn1cc[n+](C)c1.[Cl-]` [EMIM Cl, 1-ethyl-3-methylimidazolium (EMIM) chloride], the “Percent Biofilm Removed” value in experiment [1] (setting [3]) and in experiment [1] (setting [4]) was 44.3% in each case. The “Percent Removal of a 3-day Oral Biofilm” value in experiment [1] worked out at 44.3%.

As to `CCCCn1cc[n+](C)c1.[Br-]` [BMIM Br, 1-butyl-3-methylimidazolium (BMIM) bromide], in experiment [1] (setting [5]), the “Percent Biofilm Removal” value was found to be 48.0%. Also, in experiment [1], the “Percent Removal of a 3-day Oral Biofilm” value was found to be 48.0%. In addition, the “Percent Biofilm Removed” value in experiment [1] (setting [4]) was 48.0%. Moreover, in the experiment with A. viscosus, the “optical density of A. viscosus culture, 0 h” value (“optical density … 0 h” below) is reported as 0.1482; the “optical density of A. viscosus culture, 4 h” value stood at 0.2373; the “optical density of A. viscosus culture, 22 h” value (from here on “optical density … 22 h”) was 0.5994; the “optical density of A. viscosus culture, 24 h” value (“optical density … 24 h” below) was found to be 0.8244.

For the molecule `CCCCn1cc[n+](C)c1.COS(=O)(=O)[O-]` [BMIM MeSO4, BMIM methyl sulfate], the “Percent Biofilm Removal” value in experiment [1] (setting [5]) worked out at 53.9%. The “Percent Removal of a 3-day Oral Biofilm” value in experiment [1] amounted to 53.9%.

Consider “tris(2-hydroxyethyl)methylammonium methylsulfate [MTEOA MeSO4]”, for which the “Percent Removal of a 3-day Oral Biofilm” value in experiment [1] worked out at 52.8%. For the same molecule, the “Percent Biofilm Removed” value in experiment [1] (setting [6]) is listed as 52.8%. Further, the “% removal in High humectant mouthwash” value in experiment [2] (Conc Tris-HMAM 1%) came to 39.0%; in experiment [2] (Conc Tris-HMAM 2.5%), 50.5%; in experiment [2] (Conc Tris-HMAM 5%), 53.9%; in experiment [2] (Conc Tris-HMAM 10%) it was 57.7%; in experiment [2] (Conc Tris-HMAM 20%) it was 71.1%; in experiment [2] (Conc Tris-HMAM 40%) it was 73.2%. The “% removal in Low humectant mouthwash” value in experiment [2] (Conc Tris-HMAM 1%) is 25.6%; in experiment [2] (Conc Tris-HMAM 2.5%) it was 28.2%; in experiment [2] (Conc Tris-HMAM 5%) it was 30.9%; in experiment [2] (Conc Tris-HMAM 10%), 46.8%; in experiment [2] (Conc Tris-HMAM 20%), 57.3%; in experiment [2] (Conc Tris-HMAM 40%), 67.1%. Besides, the Percent Biofilm Removal in experiment [2] (setting [7]) is reported as 47%; in experiment [2] (setting [8]), 60%. The results for the “Percent biofilm removal if sorbitol at 20%” value in experiment [2] (setting [7]) and in experiment [2] (setting [8]) were 52% and 65%, respectively. Further, in the experiment with A. viscosus, the “optical density … 0 h” value is reported as 0.1482. Further, in the experiment with A. viscosus, the “optical density of A. viscosus culture, 4 h” value is 0.2605. Moreover, the “optical density … 22 h” value in the experiment on A. viscosus was found to be 0.8415. For the same molecule, the “optical density … 24 h” value in the experiment with A. viscosus is given as 0.9087.

For `CCOP(=O)([O-])OCC.CCn1cc[n+](C)c1` [EMIM diethyl PO4, EMIM diethyl phosphate], the “Percent Biofilm Removed” value in experiment [1] (setting [3]) is reported as 52.7%. The “Percent Removal of a 3-day Oral Biofilm” value in experiment [1] is listed as 52.7%.

As for `OC[C@@H](O)[C@@H](O)[C@H](O)[C@@H](O)CO` [sorbitol], the “increase in biofilm removal” value in experiment [2] (20% sorbitol in the formulations) is listed as about 5%.

In the case of “1,2,4-trimethylpyrazolium methylsulfate [MMMPz MeSO4]”, in experiment [1], the “Percent Removal of a 3-day Oral Biofilm” value is recorded as 57.8%. Moreover, the “Percent Biofilm Removed” value in experiment [1] (setting [6]) was found to be 57.9%. Besides, in the experiment on A. viscosus, the “optical density … 0 h” value came out at 0.1482; the “optical density of A. viscosus culture, 4 h” value is 0.1978; the “optical density … 22 h” value is reported as 0.8519; the “optical density … 24 h” value is listed as 1.0042.

On to `C=CCn1cc[n+](C)c1.[Cl-]` [AMIM Cl, 1-allyl-3-methylimidazolium (AMIM) chloride], for which the “biofilm removal, comparison in words” value in experiment [1] (3-day old biofilm) is “effective in removing biofilm”. For the same molecule, the “Percent Removal of a 3-day Oral Biofilm” value in experiment [1] is 44.8%. In addition, the “Percent Biofilm Removed” value in experiment [1] (setting [6]) worked out at 44.8%. In addition, in the experiment on A. viscosus, the “optical density … 0 h” value came to 0.1482; the “optical density of A. viscosus culture, 4 h” value turned out to be 0.2265; the “optical density … 22 h” value is reported as 0.7091; the “optical density … 24 h” value stood at 0.8440.

For `C[N+](C)(C)CCO.[Cl-]` [F: Choline chloride, Choline chloride], in the experiment with A. viscosus, the “optical density … 0 h” value came to 0.1482; the “optical density of A. viscosus culture, 4 h” value is 0.2445; the “optical density … 22 h” value stood at 1.0236; the “optical density … 24 h” value turned out to be 1.0674.

In the case of `C[N+](C)(C)CCO.O=C([O-])c1ccccc1O` [Choline salicylate, choline salicylate], in experiment [2] (setting [7]), the Percent Biofilm Removal is 48% and the “Percent biofilm removal if sorbitol at 20%” value was determined as 53%. Moreover, in experiment [2] (setting [8]), the Percent Biofilm Removal was determined as 61% and the “Percent biofilm removal if sorbitol at 20%” value is 66%. Moreover, in the experiment on A. viscosus, the “optical density … 0 h” value is given as 0.1482; the “optical density of A. viscosus culture, 4 h” value worked out at 0.1523; the “optical density … 22 h” value was 0.1542; the “optical density … 24 h” value was 0.1539. The “growth inhibition of A. viscosus, in words” value with A. viscosus (formulated at 10% concentration in a mouth rinse) was “greater growth inhibition of A. viscosus than control compositions containing cetyl pyridinium chloride”.

With `CCCCn1cc[n+](C)c1.[Cl-]` [BMIM Cl, 1-butyl-3-methylimidazolium (BMIM) chloride], the “Percent Biofilm Removal” value in experiment [1] (setting [5]) turned out to be 43.8%. Further, the “Percent Removal of a 3-day Oral Biofilm” value in experiment [1] amounted to 43.8%. For the same molecule, the “Percent Biofilm Removed” value in experiment [1] (setting [4]) came out at 43.8%.

Regarding `COS(=O)(=O)[O-].Cc1n(C)cc[n+]1C` [TMIM MeSO4, 1,2,3-trimethylimidazolium (TMIM) methyl sulfate], the “Percent Removal of a 3-day Oral Biofilm” value in experiment [1] amounted to 51.8%. Besides, in experiment [1] (setting [6]), the “Percent Biofilm Removed” value amounted to 51.8%.

As for `CC(=O)[O-].CCn1cc[n+](C)c1` [EMIM OAc, EMIM acetate], the “Percent Biofilm Removed” value in experiment [1] (setting [3]) is listed as 52.1%. For the same molecule, the “Percent Removal of a 3-day Oral Biofilm” value in experiment [1] was found to be 52.1%. Further, in experiment [1] (setting [4]), the “Percent Biofilm Removed” value turned out to be 52.1%. In the experiment with A. viscosus, the “optical density … 0 h” value is 0.1482; the “optical density of A. viscosus culture, 4 h” value is listed as 0.2324; the “optical density … 22 h” value stood at 0.7942; the “optical density … 24 h” value is 0.8223.

Consider `CC(=O)[O-].CCCCn1cc[n+](C)c1` [BMIM OAc, BMIM acetate], for which the “Percent Biofilm Removal” value in experiment [1] (setting [5]) came out at 55.8%. Also, in experiment [1], the “Percent Removal of a 3-day Oral Biofilm” value stood at 55.9%. In experiment [1] (setting [4]), the “Percent Biofilm Removed” value was found to be 55.8%.

In the case of `CCn1cc[n+](C)c1.Cc1ccc(S(=O)(=O)[O-])cc1` [EMIM Tosylate, EMIM tosylate], the “Percent Biofilm Removed” value in experiment [1] (setting [3]) is given as 59.5%. In experiment [1], the “Percent Removal of a 3-day Oral Biofilm” value is reported as 59.5%.

Consider choline acetate, for which, in the experiment with A. viscosus, the “optical density … 0 h” value is reported as 0.1482; the “optical density of A. viscosus culture, 4 h” value was found to be 0.2559; the “optical density … 22 h” value is given as 0.9480; the “optical density … 24 h” value amounted to 1.0385.

As for `CCCCCCCCOS(=O)(=O)[O-].CCCCn1cc[n+](C)c1` [BMIM Octyl SO4, BMIM octyl sulfate], the “Percent Biofilm Removal” value in experiment [1] (setting [5]) was 58.6%. Also, in experiment [1], the “Percent Removal of a 3-day Oral Biofilm” value was determined as 58.6%.
